What all share (type): cell-based
For one experiment, the system named is human blood platelets. The experiment in a line: In vitro inhibition of ADP-induced human platelet aggregation (platelet-rich plasma, aggregometer). As to conditions: Homo sapiens, Platelet. As to the method:
Procedure for Determining In Vitro Platelet Aggregation-Inhibitory Activity. Adenosine diphosphate (ADP) was used to induce platelet aggregation and was utilized as the sodium salt. A 10 mM stock solution was prepared fresh before each use in modified Tyrode's buffer and working dilutions were prepared with modified Tyrode's buffer immediately prior to use. The buffer contained NaCl (137.00 mM), KCl (2.70 mM), NaHCO3 (11.90 mM), NaH2 PO4 H2 O (0.36 mM) and glucose (5.60 mM) in redistilled water. Adjustment to pH 7.4 was effected by addition of 1N HCl.
The blood was transferred into plastic centrifuge tubes containing 3.2% sodium citrate (blood/citrate ratio 8:1) and centrifuged at 120Xg for 15 minutes at 23° C., yielding platelet-rich plasma (PRP); platelet-poor-plasma (PPP) was obtained by centrifugation of citrated whole blood at 1,100Xg for 15 min at 23° C. The platelet count of PRP was determined and adjusted to a final count of 300,000 platelet per mm^3 by dilution with autologous PPP. […] The plasma so obtained was transferred using a 1.0 ml Centaur pipette into a 50 ml polyethylene centrifuge tube. In order to maintain plasma pH in the appropriate range, the air in the tubes are displaced gently (2 minutes) with a 5% (CO2 -95% air (v/v) mixture and the tube capped. The plasma was maintained at 37° C. in a water bath until used in the aggregation experiments.
Assays of platelet aggregation were performed at least in duplicate, using plasma acquired from different donors, employing a method developed by Quintana, et al. (Quintana, et al., Relationships Between the Chemical Constitution of Carbamoylpiperidines and Related Compounds, and Their Inhibition of ADP-Induced Human Blood Platelet Aggregation, Thromb. Res. Vol. 22, Pages 665-680, 1981); Quintana, et al., Effects of Ethanol and of Other Factors on ADP-Induced Aggregation of Human Blood Platelets in Vitro, Thromb. Res., Vol. 20, Pages 405-415, 1980) (cf. Born, Nature, Vol. 194, Pages 927-929, 1962) and Mustard, et al., J. Lab. Clin. Med., Vol. 64, Pages 548-559, 1964).
Initially, in each experiment, 0.45-ml aliquots of PRP were placed in siliconized cuvettes and stirred (1,100 rpm) in the aggregometer at 37° C. to ascertain the absence of spontaneous aggregation. Appropriate ADP solutions (50 μl) were subsequently injected using a Hamilton microliter syringe to determine the minimal concentration eliciting maximal biphasic aggregation. […] In each case, the concentration of ADP so determined was used in eliciting aggregation throughout each specific set of aggregometric evaluations.
0.5 μl of a solution of the evaluant compound in redistilled 95% ethanol was injected into a stirred ([…]) 0.4-ml aliquot of plasma in a siliconized cuvette in the aggregometer-well (37° C). After 15 seconds, the cuvette was transferred to an incubator (also at 37° C.) and the contents held at this temperature, without stirring, until 2 minutes postinjection. The cuvette was then returned to the aggregometer-well, a base-line being recorded for 2 minutes to detect any spontaneous aggregation. At exactly 4 minutes after injection of the evaluant solution, 50 μl of the appropriate ADP solution was injected and aggregation recorded for 5.5 minutes. Evaluants were studied at least 4 different concentrations. Control experiments (ethanol in a final concentration of 0.095% v/v) were performed in conditions parallel with those involving the respective evaluants, and were initiated either 1 minute prior to or 1 minute after the start of experiments employing the test compounds. This permitted injections to be made precisely at the specified times.

The next experiment concerns human platelets. The experiment in a line: Inhibition of collagen-induced aggregation, washed aequorin-loaded platelet suspension. The conditions noted are these: Homo sapiens, Platelet; collagen-induced aggregation (n = 4); HEPES-buffered saline, 1.0 mM CaCl2; read-out: Ia50 ± S.E. Collagen-induced. As to the method:
(§1) Procedure for Cytosolic Ionized Calcium Determination. The basic procedure of Yamaguchi, et al. (Thromb. Res., Vol. 44, Pages 165-174, 1986) was followed. Blood was collected from six blood donors, aged 24-38 years, who had fasted overnight and affirmed abstinence from alcohol, caffeine and medications of any kind for a period of at least one week prior to donation. […] Platelets were collected (800 g, 15 min), resuspended in and washed (800 g, 15 min) with HEPES-buffered saline (140 mM NaCl, 2.7 mM KCl, 0.1% bovine albumin, 0.5% glucose, 3.8 mM HEPES, pH 7.6) with EGTA (5 mM) and PGE1 (1 μM). The platelet pellet was resuspended in 90 μl of the same buffer and added to 20μl of 3 mg/ml aequorin solution in a 1.5 ml Eppendorf centrifuge tube. Six 1 μl aliquots of DMSO were added at 90 second intervals with brief, gentle mixing on a Vortex mixer and the platelet suspension was incubated 2 minutes after the last addition. One ml of HEPES-buffered saline was added, gently mixed, and again incubated for 2 minutes. The platelets were pelleted (1000 g, 30 sec), resuspended in HEPES-buffered saline to which was added either 1 mM Mg Cl2, (calcium-free buffer) or 1 mM Mg Cl2 and 1 mM Ca Cl2 (calcium buffer), depending on the experiment. The platelet count was adjusted to 3-4×10^5 platelets/μl.
(§2) The Platelet Ionized Calcium Aggregometer (Chrono-Log Corp., Ltd., Havertown, Pa.) was used to obtain simultaneous aggregation and luminescence data under the following experimental conditions: (1) platelet suspension, 1 ml, was equilibrated at 37° C. with stirring at 1100 rpm; (2) 100 μl (1.2 μg) of fibrinogen was added; (3) the vehicle (95% ethanol) or the test compound in vehicle was added; (4) when needed, 10 μl of the desired concentration of EGTA was added 30 seconds prior to addition of the agonist; then (5) the agonist (Collagen, 5 μg or 20 μg) was added and the time noted. At one minute after addition of the agonist in Channel 1, a platelet sample containing fibrinogen in Channel 2 was lysed with 10 μl of a 1:1 solution of Triton X-100 (final concentration 0.005%) 10 mM CaCl2 (final concentration 0.5 mM). Treated and control […] data were corrected for time dependent decay of fluorescence using data from the untreated lysed controls.
(§3) Normally 4 compound-treated samples (at 4 different concentrations) interspersed with 3 control samples were evaluated at 4.5 minute intervals starting 18-23 minutes after the DMSO treatment. The Ia50 values were calculated as described earlier. The compound concentrations effecting 50% inhibition (Ica50) of collagen-induced cytosolic ionized calcium values was determined by linear regression analysis.
Compounds I-rac, (+)-I,(IC) and (-)-I(IA) were evaluated. The Ia50 (collagen-induced aggregation) and Ica50 (compound concentration required to inhibit by 50% the collagen-induced rise in cytosolic ionized calcium)values determined with platelet suspensions in HEPES-buffered saline containing 1.0 mM CaCl2 were as follows: […]

Experiment [1] deals with cytosolic ionized calcium in human platelets. The experiment in a line: Inhibition of collagen-induced rise in cytosolic ionized calcium (aequorin luminescence). As to conditions: Homo sapiens, Platelet, collagen-induced, 1mM [Ca2+]o (n = 4); read-out: Ica50 ± S.E. Collagen-induced (50% inhibition of collagen-induced rise in cytosolic ionized calcium). As to the method: as §1, §2, §3
Compounds I-rac, (+)-I,(IC) and (-)-I(IA) were evaluated. The Ia50 (collagen-induced aggregation) and Ica50 (compound concentration required to inhibit by 50% the collagen-induced rise in cytosolic ionized calcium)values determined with platelet suspensions in HEPES-buffered saline containing 1.0 mM CaCl2 were as follows:
Collagen-stimulation of platelets suspended in media containing 1.0 mM of Ca^2+ (FIG. 13) or 1.0 mM (FIG. 14A) or 2.0 mM (FIG. 14B) EGTA (a calcium chelator) gave […] cytosolic ionized calcium peak (aequorin-indicated luminescence). Contrarily, two phases of Ca^2+ mobilization were observed when aequorin-loaded human platelets suspended in a medium containing 0.1 mM EGTA were stimulated with collagen (FIG. 14, designation D). The first corresponded to platelet shape change and the second peak to aggregation. […] The platelet suspension (1.0 ml) was pre-incubated with 1.0 μl of (A) 95% ethanol, (B) a solution of Compound I (14.59 μM) in 95% ethanol, or (C) a solution of Compound I (23.87 μM) in 95% ethanol. Collagen (20 μg) was added at time indicated by the arrows. Luminescence was again recorded at a gain of 0.5. […] Accordingly, the stereo-selective inhibitory properties of the compounds of the present invention appear to be mediated through the inhibition of [Ca^2+ ].

The text below walks through data of US5219867A, “Platelet aggregation inhibitory agents” (priority 1992, dated 1993).

Where two headings read alike, the source gives them in different places.

Turning to `CCN(CC)C(=O)[C@@H]1CCCN(Cc2ccc(CN3CCC[C@H](C(=O)N(CC)CC)C3)cc2)C1` [IB], the IC50 in the experiment with human blood platelets (read-out: Ia50 (compound concentrations affecting 50% inhibition of aggregation) ± S.E., Table II, ADP-induced, n = 5 for (0)I and 6 for all others) came to 41.4 ± 11.8 µM; in the experiment with human blood platelets (read-out: Ia50 ± S.E. ADP-Induced, table 3, ADP-induced (n = 5-6)), 41.4 µM; in the experiment with human platelets, 65.7 µM; in experiment [1], 24.3 µM.
